ChEMBL document CHEMBL4334471, “Discovery of 1,8-disubstituted-[1,2,3]triazolo[4,5-c]quinoline derivatives as a new class of Hippo signaling pathway inhibitors” (Bioorg Med Chem Lett, 2019)

Tests used:
[1] = tested on: Ribosomal protein S6 kinase beta-1 (Homo sapiens), P23443 [T412E]; experiment: Inhibition of recombinant human p70S6K T412E mutant (1 to 421 residues) assessed as residual activity at 10 uM using KKRNRTLTV as substrate measured after 40 mins in presence of [gamma33P]ATP by scintillation counting based radiometry assay relative to control
[2] = molecular target: Serine/threonine-protein kinase 10 (Homo sapiens) (UniProt O94804); experiment: Inhibition of recombinant human LOK (1 to 348 residues) assessed as residual activity at 10 uM using RLGRDKYKTLRQI as substrate after 40 mins in presence of [gamma-33ATP] by scintillation counting based radiometry assay relative to control
[3] = molecular target: Calcium/calmodulin-dependent protein kinase type 1B (Homo sapiens) (UniProt Q6P2M8); experiment: Inhibition of recombinant full length human CaMKIbeta assessed as residual activity at 10 uM using KKLRRTLSFAEP as substrate incubated for 40 mins in presence of [gamma-33ATP] by scintillation counting based radiometry assay relative to control
[4] = molecular target: Cyclin-Y/Cyclin-dependent kinase 16 (Homo sapiens) (UniProt Q00536+Q8ND76); experiment: Inhibition of recombinant full length human CDK16/cyclinY assessed as residual activity at 10 uM using PKSPKARKKL as substrate incubated for 120 mins in presence of [gamma-33ATP] by scintillation counting based radiometry assay relative to control; format: protein-complex assay
[5] = molecular target: Ephrin type-A receptor 4 (Homo sapiens) (UniProt P54764); experiment: Inhibition of recombinant human EphA4 (601 to 892 residues) assessed as residual activity at 10 uM using poly(Glu, Tyr) 4:1 as substrate at 40 mins in presence of [gamma-33ATP] by scintillation counting based radiometry assay relative to control
[6] = molecular target: Cyclin-dependent kinase 5/CDK5 activator 1 (Homo sapiens) (UniProt Q00535+Q15078); experiment: Inhibition of recombinant full length human CDK5/p35 assessed as residual activity at 10 uM using histone H1 as substrate incubated for 40 mins in presence of [gamma-33ATP] by scintillation counting based radiometry assay relative to control; format: protein-complex assay
[7] = molecular target: Mitogen-activated protein kinase kinase kinase kinase 2 (Homo sapiens) (UniProt Q12851); experiment: Inhibition of recombinant human GCK (1 to 473 residues) assessed as residual activity at 10 uM using myelin basic protein as substrate at 40 mins in presence of [gamma-33ATP] by scintillation counting based radiometry assay relative to control
[8] = molecular target: Phosphorylase b kinase gamma catalytic chain, skeletal muscle/heart isoform (Homo sapiens) (UniProt Q16816); experiment: Inhibition of recombinant full-length human PhKgamma1 assessed as residual activity at 10 uM using KKLNRTLSFAEPG as substrate incubated for 40 mins in presence of [gamma33P]ATP by scintillation counting based radiometry assay relative to control
[9] = molecular target: Platelet-derived growth factor receptor beta (Homo sapiens) (UniProt P09619); experiment: Inhibition of human PDGFRbeta (557 to end residues) assessed as residual activity at 10 uM using poly(Glu, Tyr) 4:1 as substrate measured after 40 mins in presence of [gamma33P]ATP by scintillation counting based radiometry assay relative to control
[10] = molecular target: Ephrin type-A receptor 2 (Homo sapiens) (UniProt P29317); experiment: Inhibition of recombinant human EphA2 (596 to 900 residues) assessed as residual activity at 10 uM using poly(Glu, Tyr) 4:1 as substrate at 40 mins in presence of [gamma-33ATP] by scintillation counting based radiometry assay relative to control
[11] = molecular target: Wee1-like protein kinase (Homo sapiens) (UniProt P30291); experiment: Inhibition of recombinant human WEE1 (214 to end residues) assessed as residual activity at 10 uM using LSNLYHQGKFLQTFCGSPLYRRR as substrate incubated for 40 mins in presence of [gamma33P]ATP by scintillation counting based radiometry assay relative to control
Homo sapiens = organism: Homo sapiens; experiment: Inhibition of recombinant human Ros V2262A mutant (1883 to end residues) assessed as residual activity at 10 uM using KKKSPGEYVNIEFG as substrate incubated for 40 mins in presence of [gamma33P]ATP by scintillation counting based radiometry assay relative to control
[12] = molecular target: Dual specificity mitogen-activated protein kinase kinase 4 (Mus musculus) (UniProt P47809); experiment: Inhibition of recombinant mouse MKK4 (34 to end residues) assessed as residual activity at 10 uM using poly(Glu, Tyr) 4:1 as substrate incubated for 40 mins in presence of [gamma-33ATP] by scintillation counting based radiometry assay relative to control
[13] = molecular target: Serine/threonine-protein kinase VRK2 (Homo sapiens) (UniProt Q86Y07); experiment: Inhibition of recombinant human VRK2 (1 to 336 residues) assessed as residual activity at 10 uM using casein as substrate incubated for 40 mins in presence of [gamma33P]ATP by scintillation counting based radiometry assay relative to control
[14] = tested on: Tyrosine-protein kinase Blk (Homo sapiens), P51451 [UNDEFINED MUTATION]; experiment: Inhibition of recombinant full length human BLK M287V mutant assessed as residual activity at 10 uM using poly(Glu, Tyr) 4:1 as substrate incubated for 40 mins in presence of [gamma-33ATP] by scintillation counting based radiometry assay relative to control
[15] = molecular target: Myosin-IIIb (Homo sapiens) (UniProt Q8WXR4); experiment: Inhibition of recombinant human MYO3B (1 to 306 residues) assessed as residual activity at 10 uM using RLGRDKYKTLRQI as substrate measured after 40 mins in presence of [gamma33P]ATP by scintillation counting based radiometry assay relative to control
[16] = molecular target: Serine/threonine-protein kinase N2 (Homo sapiens) (UniProt Q16513); experiment: Inhibition of recombinant human PRK2 (501 to end residues) assessed as residual activity at 10 uM using AKRRRLSSLRA as substrate incubated for 40 mins in presence of [gamma33P]ATP by scintillation counting based radiometry assay relative to control
[17] = molecular target: Serine/threonine-protein kinase PAK 5 (Homo sapiens) (UniProt Q9P286); experiment: Inhibition of recombinant human PAK5 (425 to end residues) assessed as residual activity at 10 uM using RRRLSFAEPG as substrate measured after 40 mins in presence of [gamma33P]ATP by scintillation counting based radiometry assay relative to control
[18] = molecular target: CDK2/Cyclin A1 (Homo sapiens) (UniProt P24941+P78396); experiment: Inhibition of recombinant full length human CDK2/CyclinA assessed as residual activity at 10 uM using Histone H1 as substrate incubated for 40 mins in presence of [gamma-33ATP] by scintillation counting based radiometry assay relative to control; format: protein-complex assay
[19] = molecular target: Tyrosine-protein kinase receptor TYRO3 (Homo sapiens) (UniProt Q06418); experiment: Inhibition of recombinant human RSE (451 to end residues) assessed as residual activity at 10 uM using KVEKIGEGTYGVVYK as substrate incubated for 40 mins in presence of [gamma33P]ATP by scintillation counting based radiometry assay relative to control

Chain of Ribosomal protein S6 kinase beta-1 (Homo sapiens), P23443 [T412E] (P23443 whole entry T412E, looked up, the tested form may be a part): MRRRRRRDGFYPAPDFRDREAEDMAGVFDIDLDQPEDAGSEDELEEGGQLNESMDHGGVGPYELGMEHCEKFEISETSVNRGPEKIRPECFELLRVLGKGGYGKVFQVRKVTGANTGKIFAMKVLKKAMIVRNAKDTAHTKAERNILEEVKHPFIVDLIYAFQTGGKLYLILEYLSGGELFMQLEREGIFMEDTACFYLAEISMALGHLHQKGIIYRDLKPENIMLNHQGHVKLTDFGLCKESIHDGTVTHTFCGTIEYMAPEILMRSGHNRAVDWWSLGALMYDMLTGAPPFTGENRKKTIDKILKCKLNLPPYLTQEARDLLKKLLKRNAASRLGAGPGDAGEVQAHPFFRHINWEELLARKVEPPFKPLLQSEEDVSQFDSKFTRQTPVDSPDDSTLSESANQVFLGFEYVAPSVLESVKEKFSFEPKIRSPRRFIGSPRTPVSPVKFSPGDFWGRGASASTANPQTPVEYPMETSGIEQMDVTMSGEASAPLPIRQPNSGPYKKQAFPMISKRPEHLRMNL
Chain of Mitogen-activated protein kinase kinase kinase kinase 2 (Homo sapiens) (Q12851 whole entry, the tested form may be a part, canonical isoform): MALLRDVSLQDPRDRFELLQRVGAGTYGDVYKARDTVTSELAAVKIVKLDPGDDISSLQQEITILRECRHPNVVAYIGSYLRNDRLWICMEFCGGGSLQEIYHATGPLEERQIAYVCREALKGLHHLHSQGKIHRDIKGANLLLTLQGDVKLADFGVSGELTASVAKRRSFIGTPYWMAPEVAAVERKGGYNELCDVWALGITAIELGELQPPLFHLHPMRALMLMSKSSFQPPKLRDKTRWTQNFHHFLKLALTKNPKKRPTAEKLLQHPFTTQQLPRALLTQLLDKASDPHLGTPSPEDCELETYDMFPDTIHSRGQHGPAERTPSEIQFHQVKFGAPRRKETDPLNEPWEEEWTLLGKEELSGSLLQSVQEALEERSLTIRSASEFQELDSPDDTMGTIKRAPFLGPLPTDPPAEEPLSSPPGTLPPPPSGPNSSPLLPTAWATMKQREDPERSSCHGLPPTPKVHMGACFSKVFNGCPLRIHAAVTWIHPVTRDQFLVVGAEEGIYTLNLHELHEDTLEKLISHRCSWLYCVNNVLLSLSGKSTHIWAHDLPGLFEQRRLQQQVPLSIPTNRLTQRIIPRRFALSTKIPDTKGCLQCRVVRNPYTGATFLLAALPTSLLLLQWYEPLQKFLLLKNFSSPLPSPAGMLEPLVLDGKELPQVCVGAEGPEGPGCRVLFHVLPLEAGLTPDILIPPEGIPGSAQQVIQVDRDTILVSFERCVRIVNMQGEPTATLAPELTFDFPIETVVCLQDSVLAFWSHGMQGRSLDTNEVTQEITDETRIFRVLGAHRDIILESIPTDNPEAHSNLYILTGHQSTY
Chain of Serine/threonine-protein kinase N2 (Homo sapiens) (Q16513 whole entry, looked up): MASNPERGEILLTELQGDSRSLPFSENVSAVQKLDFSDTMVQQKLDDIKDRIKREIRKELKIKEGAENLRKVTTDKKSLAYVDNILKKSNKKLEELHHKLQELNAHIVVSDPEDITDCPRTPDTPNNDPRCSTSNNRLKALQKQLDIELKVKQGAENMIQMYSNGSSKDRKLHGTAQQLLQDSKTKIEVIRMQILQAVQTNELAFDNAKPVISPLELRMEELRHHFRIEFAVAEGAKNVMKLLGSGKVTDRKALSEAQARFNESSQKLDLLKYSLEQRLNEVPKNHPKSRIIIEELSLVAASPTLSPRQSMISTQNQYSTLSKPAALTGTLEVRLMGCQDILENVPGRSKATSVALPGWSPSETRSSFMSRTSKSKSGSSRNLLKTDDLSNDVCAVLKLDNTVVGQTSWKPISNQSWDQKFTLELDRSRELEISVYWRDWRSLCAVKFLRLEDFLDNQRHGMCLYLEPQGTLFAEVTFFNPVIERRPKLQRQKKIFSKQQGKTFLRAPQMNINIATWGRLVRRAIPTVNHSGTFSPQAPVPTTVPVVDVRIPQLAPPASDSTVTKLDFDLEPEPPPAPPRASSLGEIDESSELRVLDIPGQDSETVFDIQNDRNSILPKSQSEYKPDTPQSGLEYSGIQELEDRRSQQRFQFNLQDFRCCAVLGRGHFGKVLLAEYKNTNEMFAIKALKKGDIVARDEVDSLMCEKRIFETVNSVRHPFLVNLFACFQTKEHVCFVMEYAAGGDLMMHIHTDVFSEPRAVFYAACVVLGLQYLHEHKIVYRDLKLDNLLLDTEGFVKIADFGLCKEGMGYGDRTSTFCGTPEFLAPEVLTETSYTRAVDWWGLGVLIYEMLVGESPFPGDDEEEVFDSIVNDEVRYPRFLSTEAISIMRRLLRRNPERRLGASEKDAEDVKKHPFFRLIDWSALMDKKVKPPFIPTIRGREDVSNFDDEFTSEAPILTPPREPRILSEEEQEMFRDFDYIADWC
Chain of Serine/threonine-protein kinase PAK 5 (Homo sapiens) (Q9P286 whole entry, looked up): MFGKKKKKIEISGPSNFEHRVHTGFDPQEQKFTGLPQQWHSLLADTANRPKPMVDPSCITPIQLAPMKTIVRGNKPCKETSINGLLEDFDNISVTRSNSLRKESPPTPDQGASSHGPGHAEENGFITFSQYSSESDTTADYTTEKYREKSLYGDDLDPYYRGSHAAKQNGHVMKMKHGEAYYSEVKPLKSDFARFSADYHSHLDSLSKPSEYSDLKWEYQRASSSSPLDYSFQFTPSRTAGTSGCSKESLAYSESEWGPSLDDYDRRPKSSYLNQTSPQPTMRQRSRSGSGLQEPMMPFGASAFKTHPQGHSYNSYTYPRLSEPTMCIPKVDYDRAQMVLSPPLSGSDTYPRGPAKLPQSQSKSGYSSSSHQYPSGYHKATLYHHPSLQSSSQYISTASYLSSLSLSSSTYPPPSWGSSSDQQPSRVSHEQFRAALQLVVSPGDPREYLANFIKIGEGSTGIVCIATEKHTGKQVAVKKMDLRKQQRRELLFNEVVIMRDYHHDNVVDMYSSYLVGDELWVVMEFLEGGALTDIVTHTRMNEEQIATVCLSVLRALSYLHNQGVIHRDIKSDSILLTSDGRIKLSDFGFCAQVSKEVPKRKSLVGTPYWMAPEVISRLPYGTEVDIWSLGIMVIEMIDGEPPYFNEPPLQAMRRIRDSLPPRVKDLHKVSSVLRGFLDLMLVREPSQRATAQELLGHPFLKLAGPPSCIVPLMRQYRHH
Chain of Ephrin type-A receptor 4 (Homo sapiens) (P54764 whole entry, the tested form may be a part): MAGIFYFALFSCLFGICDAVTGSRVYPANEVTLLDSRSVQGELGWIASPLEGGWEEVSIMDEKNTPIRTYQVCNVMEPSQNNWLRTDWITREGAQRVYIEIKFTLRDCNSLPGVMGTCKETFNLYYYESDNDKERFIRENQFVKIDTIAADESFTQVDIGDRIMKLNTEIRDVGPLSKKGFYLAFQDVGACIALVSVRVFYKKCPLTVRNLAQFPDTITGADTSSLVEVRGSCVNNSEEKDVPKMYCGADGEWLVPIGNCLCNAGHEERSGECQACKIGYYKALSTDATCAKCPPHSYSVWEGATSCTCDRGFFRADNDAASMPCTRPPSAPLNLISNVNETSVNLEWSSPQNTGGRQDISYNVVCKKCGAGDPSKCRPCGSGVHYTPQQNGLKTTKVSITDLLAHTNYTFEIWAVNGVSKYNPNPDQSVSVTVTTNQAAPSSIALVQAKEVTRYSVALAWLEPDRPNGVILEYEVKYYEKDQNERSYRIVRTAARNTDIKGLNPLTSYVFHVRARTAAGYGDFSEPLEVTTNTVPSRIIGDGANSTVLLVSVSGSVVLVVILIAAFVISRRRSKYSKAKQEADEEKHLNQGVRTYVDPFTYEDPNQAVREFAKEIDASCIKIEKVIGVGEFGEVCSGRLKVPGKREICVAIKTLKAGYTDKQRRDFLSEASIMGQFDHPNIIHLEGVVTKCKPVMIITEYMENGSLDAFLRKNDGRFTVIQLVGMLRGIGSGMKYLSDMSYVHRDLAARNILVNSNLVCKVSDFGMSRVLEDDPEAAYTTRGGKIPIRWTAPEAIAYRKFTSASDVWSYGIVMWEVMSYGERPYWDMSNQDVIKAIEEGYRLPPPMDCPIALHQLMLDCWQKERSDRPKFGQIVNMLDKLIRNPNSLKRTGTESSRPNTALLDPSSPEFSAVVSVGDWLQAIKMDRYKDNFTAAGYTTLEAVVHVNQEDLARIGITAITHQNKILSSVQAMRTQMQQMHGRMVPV
Chain of Wee1-like protein kinase (Homo sapiens) (P30291 whole entry, looked up): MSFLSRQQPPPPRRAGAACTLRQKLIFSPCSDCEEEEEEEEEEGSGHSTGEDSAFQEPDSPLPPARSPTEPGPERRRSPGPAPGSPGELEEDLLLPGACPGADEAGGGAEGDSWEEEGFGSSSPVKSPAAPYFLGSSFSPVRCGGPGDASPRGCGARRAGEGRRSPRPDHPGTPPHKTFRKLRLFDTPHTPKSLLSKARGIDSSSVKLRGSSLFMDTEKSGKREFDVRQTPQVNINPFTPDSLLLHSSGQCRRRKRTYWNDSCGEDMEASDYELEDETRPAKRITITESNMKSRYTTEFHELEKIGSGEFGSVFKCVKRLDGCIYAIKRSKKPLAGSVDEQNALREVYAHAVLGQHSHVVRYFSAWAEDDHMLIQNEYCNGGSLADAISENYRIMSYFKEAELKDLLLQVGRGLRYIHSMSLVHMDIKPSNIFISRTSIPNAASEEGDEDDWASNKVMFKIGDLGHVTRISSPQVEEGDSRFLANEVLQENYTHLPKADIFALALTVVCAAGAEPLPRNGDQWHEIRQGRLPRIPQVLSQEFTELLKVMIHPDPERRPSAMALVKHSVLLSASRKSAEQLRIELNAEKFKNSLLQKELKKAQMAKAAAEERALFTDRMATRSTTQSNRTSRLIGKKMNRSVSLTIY
Chain of Calcium/calmodulin-dependent protein kinase type 1B (Homo sapiens) (Q6P2M8 whole entry): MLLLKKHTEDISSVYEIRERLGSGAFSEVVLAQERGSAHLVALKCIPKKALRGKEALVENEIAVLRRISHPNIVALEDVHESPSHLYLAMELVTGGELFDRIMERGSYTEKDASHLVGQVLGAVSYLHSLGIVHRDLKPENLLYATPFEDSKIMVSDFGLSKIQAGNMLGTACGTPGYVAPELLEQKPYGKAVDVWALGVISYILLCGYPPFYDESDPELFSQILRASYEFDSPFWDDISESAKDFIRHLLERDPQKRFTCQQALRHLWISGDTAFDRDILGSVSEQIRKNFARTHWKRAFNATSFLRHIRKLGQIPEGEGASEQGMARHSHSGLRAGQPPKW

C[C@@H](c1ccccc1)n1nnc2cnc3ccc(-c4cnc5[nH]ccc5c4)cc3c21
Activity [1]: 54%
Activity [2]: 54%
Activity [3]: 67%
Activity [4]: 106%
Activity [5]: 81%
Activity [6]: 84%
Activity [7]: 75%
Activity [8]: 70%
Activity [9]: 79%
Activity [10]: 68%
Activity [11]: 101%
Activity (Homo sapiens): 102%
Activity [12]: 129%
Activity [13]: 80%
Activity [14]: 8%
Activity [15]: 73%
Activity [16]: 89%
Activity [17]: 90%
Activity [18]: 63%
Activity [19]: 89%
